Data set [1] concerns patients with moderate-to-severe AD. Particulars: Week 24; memantine 20 mg/day or placebo added to stable donepezil.
For data set [2] the test system is unchanged. The following applies: Week 24; memantine 20 mg/day or placebo added to stable donepezil. This is another data set of the same source.
For data set [3] the following is noted: 5 mg/day for 28 days in healthy subjects; cited from earlier work.
In data set [4] the test system is patients with moderate-to-severe AD. The following applies: Week 24; memantine 20 mg/day or placebo added to stable donepezil. The source holds these as a separate data set.
Data set [5] shares this test system. The following applies: 24 weeks; groups of 202 and 201.
Data set [6] is described as follows: clinical. The following applies: both, human, plasma, po.
The conditions of data set [7]: cited from earlier work.
For data set [8], the system named is healthy young subjects. The following applies: single 10 mg memantine alone or with multiple daily doses of 10 mg donepezil.
The subject of data set [9] is human neuroblastoma cells SK-N-SH. The data set is described as follows: APP processing in cultured SK-N-SH cells (Western immunoblotting or ELISA). The format is cell-based. The following applies: memantine 1-4 μM. The method, then: NMDA receptors have been also implicated in the signalling cascades affecting or affected by APP processing. […] The present inventor and co-workers have studied the effect of memantine (NMDA receptor antagonist) on the processing of APP in cultured human neuroblastoma cells SK-N-SH. Cells were treated with memantine (1-4 μM) or vehicle, and the levels of sAPP and βAP40 in the conditioned media and the total intracellular APP were measured by Western immunoblotting or ELISA using specific antibodies.
For orientation: Immunoblotting shows a protein as a band on a membrane.

Data set [10] deals with cytochrome P450 system. Particulars: in vitro studies; cited from earlier work.
For data set [11] the following is noted: humans; cited from earlier work.
Data set [12] relates to human neuroblastoma cells SK-N-SH. The data set is described as follows: Cell viability and toxicity, MTT and LDH assays. The following applies: memantine 1-4 μM. (In general: Tetrazolium dyes change colour on reduction, which living cells bring about.)
Data set [13] deals with human neuroblastoma cells. The following applies: in the absence of any detectable cellular damage or toxicity; cited from earlier work.

Each structure is given as a SMILES string. Structures can show the parent of a compound that is named as a salt.

Results on three compounds are retold here after patent US20090124659A1, “Combination therapy using 1-aminocyclohexane derivatives and acetylcholinesterase and inhibitors” (priority 2002, published 2009).

As for `COc1cc2c(cc1OC)C(=O)C(CC1CCN(Cc3ccccc3)CC1)C2` (racemic) [donepezil, (R,S)-1-benzyl-4-[(5,6-dimethoxy-1-indanon)-2yl]-methylpiperidine hydrochloride], the “ADCS-ADL, change from Baseline to Endpoint (LOCF), LS mean change (SE)” value in [1] was −3.4 (0.51). Further, in data set [2], the “CIBIC-Plus at Endpoint (LOCF), LS mean (SD)” value is given as 4.7 (1.05). Also, in data set [3], the “time of peak plasma concentrations” value is given as “approximately 3 hours”. Further, the “SIB, change from Baseline to Endpoint (LOCF), LS mean change (SE)” value in data set [4] is on record as −2.5 (0.69). In addition, in data set [5], the “Agitation, %” value was “(11.9) %”; the “Confusion, %” value is “(2.0) %”; the “Constipation, %” value was “(1.5) %”; the “Coughing, %” value is on record as “(1.0) %”. Besides, in data set [5], the “Depression, %” value was “(3.0) %”; the “Diarrhoea, %” value is on record as “(8.5) %”; the “Dizziness, %” value was “(8.0) %”; the “Fall, %” value is “(7.0) %”. Moreover, in data set [5], the “Fatigue, %” value is “(3.5) %”; the “Gait abnormal, %” value is recorded as “(1.0) %”; the “Headache, %” value is “(2.5) %”; the “Hypertension, %” value is “(1.5) %”. In [5], the “Inflicted injury, %” value is “(8.0) %”; the “Influenza-like symptoms, %” value was “(6.5) %”; the “Oedema peripheral, %” value is listed as “(4.0) %”; the “Pain, %” value was “(0.5) %”. Moreover, in [5], the “Pat. with any AE, %” value was “(71.6) %”; the “Somnolence, %” value is “(3.5) %”; the “Upper resp. tract infection, %” value is “(6.5) %”; the “Urinary incontinence, %” value was “(3.0) %”. For the same compound, in data set [5], the “Urinary tract infection, %” value was “(5.0) %” and the “Vomiting, %” value was “(3.0) %”.

`CC12CC3CC(C)(C1)CC(N)(C3)C2` [memantine, 1-amino-3,5-dimethyl adamantane]: the Cmax – broadly, the maximum level reached in the sampled fluid or tissue – in data set [6] stood at 13 ng/mL. In data set [6] (10 mg), the concentration peaked (Cmax) at 12.8 ng/mL and the Tmax (usually the time from dosing to the highest level) came out at 6.5 h. The “dose recovered, mainly in the urine” value in [7] (after administration of 14C memantine) is reported as 84%. The absolute bioavailability entry in data set [7] (in vivo, po) is “approximately 100%”. In addition, in data set [7] (in vivo), the half-life – broadly, how long it takes for the measured level to halve – is 60 to 80 h. Besides, in [8], the safety and tolerability entry is “safe and well-tolerated”. In [9], the “levels of total intracellular APP” value was “without affecting”, the “sAPP level in the conditioned media” value is “decrease” and the “βAP40 level in the conditioned media” value is “decrease”. Further, the “potential of drug interactions with drugs metabolized via the cytochrome P450 system” value in [10] was “low potential”. For the same compound, in data set [11], the “therapeutically effective circulating concentration” value is 1 µM. In addition, the “cell viability and toxicity (MTT and LDH assays)” value in data set [12] is on record as “not affected”.

Turning to `Cl.Nc1c2c(nc3ccccc13)CCCC2` [tacrine, 1,2,3,4-tetrahydro-9-aminoacridine hydrochloride], the “release of sAPPα, total βAP, βAP40 and βAP42” value in data set [13] is recorded as “reduce”.
